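Each compound was tested at five concentrations against cells in 96-well plates for 48 hours. TGI denotes the concentration required for complete inhibition of growth.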
How the values were obtained:
Assay in all cases: NCI anticancer screen, dose series, 48 h
[1] = test system: UACC-62 melanoma
[2] = test system: BT-549 breast
[3] = test system: HOP-92 NSCLC
[4] = test system: NCI-H23 lung
[5] = test system: SNB-19 CNS
[6] = test system: UACC-257 melanoma
[7] = test system: SNB-75 CNS
[8] = test system: IGROV1 ovarian
[9] = test system: K-562 leukemia
[10] = test system: KM12 colon
[11] = test system: NCI-H522 lung
[12] = test system: RXF 393 renal
[13] = test system: CCRF-CEM leukemia
[14] = test system: MALME-3M melanoma

| Compound | TGI [1] [µM] | TGI [2] [µM] | TGI [3] [µM] | TGI [4] [µM] | TGI [5] [µM] | TGI [6] [µM] | TGI [7] [µM] | TGI [8] [µM] | TGI [9] [µM] | TGI [10] [µM] | TGI [11] [µM] | TGI [12] [µM] | TGI [13] [µM] | TGI [14] [µM] |
| --- | --- | --- | --- | --- | --- | --- | --- | --- | --- | --- | --- | --- | --- | --- |
| COc1ccc(-c2oc3cc(-c4cc5oc(-c6ccc(OC)cc6)c(-c6ccc(OC)cc6)c5cc4OC)c(OC)cc3c2-c2ccc(OC)cc2)cc1 | > 100 | > 100 | > 100 | > 100 | > 100 | > 100 | > 100 | > 100 | > 100 | > 100 | > 100 | > 100 | > 100 | > 100 |
| N#Cc1ccccc1OCCOc1ccccc1C#N | > 100 | > 100 | > 100 | > 100 | > 100 | > 100 | > 100 | > 100 | > 100 | > 100 | > 100 | > 100 | > 100 | > 100 |
| O=C1CC(O)c2cscc21 (stereo unspecified) | > 100 | > 100 | > 100 | > 100 |  | > 100 | > 100 | > 100 | > 100 | > 100 | > 100 | > 100 | 45.8 | > 100 |
| CCOc1cnc(C(O)(c2ccccc2)c2ccccc2)o1 | > 100 | > 100 | > 100 | > 100 | > 100 | > 100 | > 100 | > 100 | > 100 | > 100 | > 100 | > 100 | > 100 | > 100 |
| COc1cc2nc(Cl)nc(NS(=O)(=O)c3cc4ccccc4s3)c2cc1OC | 39.3 | 57.9 | 46.8 | 62.5 | 48.6 | > 100 | 60 | 71.8 | 52.6 | 51.2 | 74.6 | 37.9 | 33 | > 100 |
| COC(=O)[C@@H]1CO[C@H](C(C)(C)C)N1C(=O)N1C=CC(=O)C[C@H]1C | > 100 | > 100 | > 100 | > 100 |  | > 100 | > 100 | > 100 | > 100 | > 100 | > 100 | > 100 | > 100 | > 100 |
| COc1ccccc1C1c2cc3c(cc2OC2(OC)COC(=O)C12)OCO3 (stereo unspecified) | 60.1 | > 100 | > 93.8 | > 100 | > 77.6 | > 100 | 43.1 | > 100 | > 45.6 | 45.5 | > 27.3 | 44.2 | 75.6 | > 100 |
| CCCCCCCCCCCCCCCCCCNc1ccn(C2OC(COP(=O)(O)OCC3OC(n4ccc(N)nc4=O)C(O)C3O)C(O)C2O)c(=O)n1 (stereo unspecified) | > 100 | > 87.9 | > 100 | > 100 | > 100 | > 100 | > 100 | > 100 | > 100 | > 100 | > 100 | > 100 | > 100 | > 100 |
| S=C1Cc2c(-c3ccccc3)cc(-c3cccc(Cl)c3)nc2-c2ccccc2N1 | 5.36 | 19.5 | 5.12 | 21.2 | 7.97 | 35 | 5.86 | 4.56 | > 100 | > 100 | 13.1 | 12.8 | 30.5 | > 24.5 |
| [B]C(=O)NC(CC(C)C)C(=O)NCC(=O)NC1c2ccsc2C(=O)C1O (stereo unspecified) (tested in a mixture with another compound) | > 100 | > 100 | > 100 | > 100 | > 100 | > 100 | > 100 | > 100 | > 31.6 | > 100 | > 100 | > 100 | > 31.6 | > 100 |
| C[C@@H](CC(=O)OCc1ccccc1)OC1OC(COC(=O)C(C)(C)C)C(OC(=O)C(C)(C)C)C(OC(=O)C(C)(C)C)C1OC(=O)C(C)(C)C (stereo partly specified) | > 100 | > 100 | > 100 | > 100 | > 100 | > 100 | > 100 | > 100 | > 100 | > 100 | > 100 | > 100 | > 100 | > 100 |
| O=S(=O)(/N=C(\NO)Nc1ccc(Cl)cc1)c1cc(C(F)(F)F)cc(C(F)(F)F)c1 | 30.7 | 33.3 | 30.3 | 36.6 | 31.5 | 42.4 | 33.1 | 31.6 | 90.4 | 41.1 | 40.4 | 41 | > 100 | 37.1 |
| C=C1CC[C@@H](CCC2CCC3(OC2)O[C@]2(O)CC[C@@]3(C)OC2(C)C)C(C)(C)[C@H]1C/C=C1\CCOC1=O (stereo partly specified) | > 100 | 49.1 | 66.4 | > 100 | > 100 | > 67.6 | > 92.4 | > 100 | 26.5 | > 60.3 | > 58.9 | 49.5 | 83 | 55.2 |
| NC1=NC2(COC(c3ccccc3)(c3ccccc3)c3ccccc3)OC(COC(c3ccccc3)(c3ccccc3)c3ccccc3)C(O)C2O1 (stereo unspecified) | > 100 | > 100 | > 100 | > 100 | > 100 | > 100 | 4.47 | > 100 | > 100 | > 100 | > 100 | > 100 | > 100 | > 100 |
| O=C(Nn1c(-c2ccccc2)nc2ccccc2c1=O)c1ccc(Cl)cc1 | > 100 | > 100 | > 100 | > 100 | > 100 | > 100 | > 100 | > 100 | > 100 | > 100 | > 100 | > 100 | > 100 | > 100 |
| COC(=O)[C@@H]1[C@@H]2NC(=S)N[C@@]1(C)Oc1ccccc12 | > 100 | > 100 | > 100 | > 100 | > 100 | > 100 | > 100 | > 100 | > 100 | > 100 | > 100 | > 100 | > 100 | > 100 |
| CSC(=O)/C=C1\SS/C(=C\C(=O)SC)S1 | 2.87 | 3.26 | 7.87 | 27.6 | 20.7 | 11.3 | 10.5 | 11.6 | > 100 | 13 | 6.34 | 2.8 | > 100 | 4.6 |

Reference: PubChem BioAssay (NCI)
